Measurements: patent US20190119282A1, “IMIDAZOPYRIDAZINES USEFUL AS INHIBITORS OF THE PAR-2 SIGNALING PATHWAY” (Vertex Pharmaceuticals Incorporated, priority 2013, published 2019)

Assays:
[1] = system: UTP-stimulated Ca2+ response in HT-29 cells; assay: Ca FLIPR TETRA assay, ANTAGONIST mode, stimulation with 0.6 μM UTP; assay type: cell-based, human; conditions: Homo sapiens, HT-29 cells
Procedure, shortened: (§1)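 HT-29 cells grown overnight in 1% FBS McCoy's medium were loaded with calcium 5 dye (45 min 37 °C, 15 min r.t.). Compounds were added and Ca2+ read for direct activation, then after 30 min at r.t. cells were stimulated with 8 μM SLIGKV, 1 U/mL thrombin, 3.1 U/mL trypsin or 0.6 μM UTP (final).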

[2] = molecular target: T1, PAR2 (HT-29 cells, SLIGKV activation) (Homo sapiens, UniProt P55085); assay: Ca FLIPR TETRA assay, ANTAGONIST mode, stimulation with 8 μM SLIGKV; assay type: cell-based; conditions: HT-29 cells
T1 construct: host or cells: HT-29 cells
T1 sequence (P55085 26-397): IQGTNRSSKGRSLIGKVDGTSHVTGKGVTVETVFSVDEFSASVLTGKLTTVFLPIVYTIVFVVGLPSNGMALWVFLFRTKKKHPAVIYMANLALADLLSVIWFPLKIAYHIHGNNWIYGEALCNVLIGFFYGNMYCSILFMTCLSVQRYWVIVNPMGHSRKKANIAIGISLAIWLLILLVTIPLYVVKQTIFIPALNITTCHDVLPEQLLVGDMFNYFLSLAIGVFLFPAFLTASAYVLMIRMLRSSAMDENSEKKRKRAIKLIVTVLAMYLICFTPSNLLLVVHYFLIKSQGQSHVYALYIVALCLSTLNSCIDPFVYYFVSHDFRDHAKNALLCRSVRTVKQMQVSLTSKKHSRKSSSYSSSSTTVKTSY
Procedure, shortened: as §1

[3] = system: Thrombin-stimulated Ca2+ response in HT-29 cells; assay: Ca FLIPR TETRA assay, ANTAGONIST mode, stimulation with 1 U/mL Thrombin; assay type: cell-based, human; conditions: for IC50: Homo sapiens, HT-29 cells
Procedure, shortened: as §1

[4] = molecular target: T2, PAR2 (HT-29 cells, trypsin activation) (Homo sapiens, UniProt P55085); assay: Ca FLIPR TETRA assay, ANTAGONIST mode, stimulation with 3.1 U/mL trypsin; assay type: cell-based; conditions: HT-29 cells
T2 construct: host or cells: HT-29 cells
T2 sequence (P55085 26-397): T1 sequence (P55085 26-397)
Procedure, shortened: as §1

[5] = antagonist mode, stimulation with 0.6 μM UTP
[6] = antagonist mode, stimulation with 8 μM SLIGKV
[7] = antagonist mode, stimulation with 1 U/mL Thrombin
[8] = antagonist mode, stimulation with 3.1 U/mL trypsin
[9] = antagonist mode, 1 U/mL Thrombin
[10] = antagonist mode, 3.1 U/mL trypsin
[11] = stimulation with 3.1 U/mL trypsin
[12] = stimulation with 1 U/mL Thrombin

| SMILES | IC50 [1, 5] | IC50 [2, 6] | IC50 [3, 7] | IC50 [4, 8] | IC50 ([1]; stimulation with 0.6 μM UTP) | IC50 ([2]; stimulation with 8 μM SLIGKV) | IC50 [4, 11] | IC50 [3, 12] | other results |
| --- | --- | --- | --- | --- | --- | --- | --- | --- | --- |
| C[C@H]1CN(c2cc(-c3ccc(F)cc3)nn3cc(C(=O)N4CCNC(=O)C4(C)C)nc23)C[C@H](C)O1 [Compound I-183] | 810 nM | 15 nM | 840 nM | 33.6 nM | – | – | – | – | – |
| CN(C)C(=O)CN1CCN(C(=O)c2cn3nc(-c4ccc(F)cc4)cc(C(C)(C)C)c3n2)C(C)(C)C1=O [Compound I-194] | > 1000 nM | 41.3 nM | > 1000 nM | 40.3 nM | – | – | – | – | – |
| CC1(C)C(=O)NCCN1C(=O)c1cn2nc(-c3ccc(F)cc3)cc(-c3ccsc3)c2n1 [Compound I-567, 4-(6-(4-fluorophenyl)-8-(thiophen-3-yl)imidazo[1,2-b]pyridazine-2-carbonyl)-3,3-dimethylpiperazin-2-one] | – | – | – | – | – | – | – | – | IC50 ([1]; antagonist mode, 0.6 μM UTP): > 1000 nM; IC50 ([2]; antagonist mode, 8 μM SLIGKV): 23 nM; IC50 [3, 9]: > 1000 nM; IC50 [4, 10]: 49.8 nM |
| CC(C)c1cc(-c2ccc(F)cc2)nn2cc(C(=O)N3CCN(C(=O)C4(O)CCC4)CC3(C)C)nc12 [Compound I-19, [6-(4-Fluorophenyl)-8-isopropyl-imidazo[1,2-b]pyridazin-2-yl]-[4-(1-hydroxycyclobutanecarbonyl)-2,2-dimethyl-piperazin-1-yl]methanone] | – | – | – | – | 50000 nM | 25 nM | 56 nM | – | Thrombin % @ concentration ([3]; @ 50 (μM)): 62% @ 50 |
| CC(C)(C)c1cc(-c2ccc(F)cc2)nn2cc(C(=O)N3CCN(C(=O)CCC#N)CC3(C)C)nc12 [Compound I-566] | – | – | – | – | – | – | – | – | IC50 ([1]; antagonist mode, 0.6 μM UTP): > 1000 nM; IC50 ([2]; antagonist mode, 8 μM SLIGKV): 3 nM; IC50 [3, 9]: > 1000 nM; IC50 [4, 10]: 5.1 nM |
| CC(O)C(=O)N1CCN(C(=O)c2cn3nc(-c4ccc(F)cc4)cc(C(C)C)c3n2)C(C)(C)C1 (stereo not drawn) [Compound I-175] | – | – | – | – | 34000 nM | 23 nM | 60 nM | 41000 nM | – |
| CC(C)C(O)C(=O)N1CCN(C(=O)c2cn3nc(-c4ccc(F)cc4)cc(C(F)(F)F)c3n2)C[C@@H]1C (stereo partly drawn) [Compound I-91] | – | – | – | – | 20000 nM | 69 nM | 1500 nM | 26000 nM | – |
| CC(C)c1cc(-c2ccc(F)cc2)nn2cc(C(=O)N3CCN(C(=O)C(O)Cc4ccccc4)[C@@H](C)C3)nc12 (stereo partly drawn) [Compound I-113] | – | – | – | – | 7200 nM | 0.8 nM | 3 nM | 8400 nM | – |
| CCc1cc(-c2ccc(F)cc2)nn2cc(C(=O)N3CCN(C(=O)C4(O)CCC4)CC3(C)C)nc12 [Compound I-162] | – | – | – | – | 35000 nM | 110 nM | 160 nM | 35000 nM | – |
| CC(C)c1cc(-c2ccc(F)cc2)nn2cc(C(=O)N3CCN(C(=O)CC4CC4)[C@@H](C)C3)nc12 [Compound I-140] | – | – | – | – | 14000 nM | 14 nM | 250 nM | 15000 nM | – |
| CC(C)(C)OC(=O)N1CCN(C(=O)c2cn3nc(-c4ccc(F)cc4)cc(C(C)(C)C)c3n2)C(C)(C)C1 [Compound I-190] | > 50000 nM | 4.2 nM | > 50000 nM | 4.8 nM | – | – | – | – | – |
| CC(C)c1cc(-c2ccc(F)cc2)nn2cc(C(=O)N3CCN(C(=O)CCC4CCC4)[C@@H](C)C3)nc12 [Compound I-144] | – | – | – | – | 5200 nM | 2 nM | 5 nM | 6600 nM | – |
| CC(C)c1cc(-c2ccc(F)cc2)nn2cc(C(=O)N3CCN(C(=O)Cc4ccsc4)[C@@H](C)C3)nc12 [Compound I-125] | – | – | – | – | > 500 nM | 2 nM | 5 nM | > 500 nM | – |
| O=C(c1cn2nc(-c3ccc(F)cc3)cc(C(F)(F)F)c2n1)N1CCCCC1CO (stereo not drawn) [Compound I-47] | – | – | – | – | 32000 nM | 3100 nM | 7500 nM | 16000 nM | – |
| CCc1cc(-c2ccc(F)cc2)nn2cc(C(=O)N3CCN(C(=O)OC(C)(C)C)CC3(C)C)nc12 [Compound I-4, tert-Butyl 4-[8-ethyl-6-(4-fluorophenyl)imidazo[1,2-b]pyridazine-2-carbonyl]-3,3-dimethyl-piperazine-1-carboxylate] | – | – | – | – | 17000 nM | 3 nM | 16 nM | 12000 nM | – |
| CC(C)c1cc(-c2ccc(F)cc2)nn2cc(C(=O)N3CCOCC3(C)C)nc12 [Compound I-120] | – | – | – | – | 24000 nM | 130 nM | 1000 nM | 20000 nM | – |

Now from value to molecule, other results behind:

| IC50 [1, 5] | IC50 [2, 6] | IC50 [3, 7] | IC50 [4, 8] | IC50 ([1]; stimulation with 0.6 μM UTP) | IC50 ([2]; stimulation with 8 μM SLIGKV) | IC50 [4, 11] | IC50 [3, 12] | SMILES | other results |
| --- | --- | --- | --- | --- | --- | --- | --- | --- | --- |
| > 1000 nM | 5.6 nM | > 1000 nM | 5.9 nM | – | – | – | – | CC(C)c1cc(-c2ccc(F)cc2)nn2cc(C(=O)N3CCN(C(=O)c4cn[nH]c4)CC3(C)C)nc12 [Compound I-327] | – |
| > 1000 nM | 10.4 nM | > 1000 nM | 7.6 nM | – | – | – | – | CC(C)c1cc(-c2ccc(F)cc2)nn2cc(C(=O)N3CCN(C(=O)C(C)(N)C(F)(F)F)CC3(C)C)nc12 (stereo not drawn) [Compound I-314] | – |
| > 1000 nM | 160 nM | > 1000 nM | 315 nM | – | – | – | – | CC1(C)C(=O)OCCN1C(=O)c1cn2nc(-c3ccc(F)cc3)cc(C(F)(F)F)c2n1 [Compound I-514] | – |
| 930 nM | 0.7 nM | > 1000 nM | 1.1 nM | – | – | – | – | CC(C)(C)c1cc(-c2ccc(F)cc2)nn2cc(C(=O)N3CCN(c4nn[nH]n4)C(=O)C3(C)C)nc12 [Compound I-235] | – |
| 500 nM | 1.3 nM | 410 nM | 2.2 nM | – | – | – | – | COC(=O)C12CC(C(=O)N3CCN(C(=O)c4cn5nc(-c6ccc(F)cc6)cc(C(C)(C)C)c5n4)C(C)(C)C3)(C1)C2 [Compound I-530] | – |
| > 1000 nM | 2.7 nM | > 1000 nM | 2.1 nM | – | – | – | – | CC(C)(C)c1cc(-c2ccc(Br)cc2)nn2cc(C(=O)N3CCNC(=O)C3(C)C)nc12 [Compound I-517] | – |
| > 1000 nM | 5.8 nM | > 1000 nM | 14.1 nM | – | – | – | – | CC(C)c1cc(-c2ccc(F)cc2)nn2cc(C(=O)N3CCN(C(=O)c4nc[nH]n4)CC3(C)C)nc12 [Compound I-237] | – |
| > 1000 nM | 0.7 nM | > 1000 nM | 2 nM | – | – | – | – | Cc1cc(C(=O)N2CCN(C(=O)c3cn4nc(C5CCC(F)(F)CC5)cc(C(C)(C)C)c4n3)C(C)(C)C2)[nH]n1 [Compound I-437] | – |
| > 1000 nM | 0.3 nM | > 1000 nM | 0.6 nM | – | – | – | – | CC(C)c1cc(-c2ccc(C(F)(F)F)cc2)nn2cc(C(=O)N3CCN(C(=O)[C@H]4C[C@](O)(C(F)(F)F)C4)CC3(C)C)nc12 [Compound I-245] | – |
| 890 nM | 3.3 nM | > 1000 nM | 4.4 nM | – | – | – | – | CC(C)(C)c1cc(-c2ccc(F)cc2)nn2cc(C(=O)N3CCN(C(=O)c4n[nH]c(=O)[nH]4)CC3(C)C)nc12 [Compound I-357] | – |
| > 1000 nM | 17 nM | > 1000 nM | 12 nM | – | – | – | – | CC(C)c1cc(-c2ccc(F)cc2)nn2cc(C(=O)N3CCN(C(=O)c4c[nH]cn4)CC3(C)C)nc12 [Compound I-326] | – |
| > 1000 nM | 2.2 nM | > 1000 nM | 3.7 nM | – | – | – | – | COC(=O)CCC(=O)N1CCN(C(=O)c2cn3nc(-c4ccc(F)cc4)cc(C(C)(C)C)c3n2)C(C)(C)C1 [Compound I-529] | – |
| > 1000 nM | 2.4 nM | 730 nM | 5.5 nM | – | – | – | – | CC(C)(C)c1cc(-c2ccc(F)cc2)nn2cc(C(=O)N3CCN(C(=O)c4cncnc4)CC3(C)C)nc12 [Compound I-230] | – |
| > 1000 nM | 1.1 nM | > 1000 nM | 1.5 nM | – | – | – | – | Cc1ccc(-c2cc(C(C)(C)C)c3nc(C(=O)N4CCN(c5cn[nH]c5)C(=O)C4(C)C)cn3n2)cc1F [Compound I-365] | – |
